Test results: ChEMBL document CHEMBL1921749, “5-Lipoxygenase-activating protein (FLAP) inhibitors. Part 4: development of 3-[3-tert-butylsulfanyl-1-[4-(6-ethoxypyridin-3-yl)benzyl]-5-(5-methylpyridin-2-ylmethoxy)-1H-indol-2-yl]-2,2-dimethylpropionic acid (AM803), a potent, oral, once daily FLAP inhibitor” (J Med Chem, 2011)

Legend:
[1] = tested on: Rattus norvegicus; experiment: Antiinflammatory activity in rat assessed as inhibition of calcium ionophore A23187-induced LTB4 production in bronchoalveolar lavage fluid at 3 mg/kg, po administered 4 hrs prior to A23187 challenge; type: functional, Lung; design: scale not given: the % may be the effect or the level left
[2] = target: T1, Arachidonate 5-lipoxygenase-activating protein (Homo sapiens, UniProt P20292); experiment: Inhibition of FLAP in human peripheral leukocytes assessed as inhibition of calcium ionophore A23187-induced LTB4 production after 5 mins by ELISA in absence of human serum albumin; type: cell-based
T1 sequence (P20292 whole entry): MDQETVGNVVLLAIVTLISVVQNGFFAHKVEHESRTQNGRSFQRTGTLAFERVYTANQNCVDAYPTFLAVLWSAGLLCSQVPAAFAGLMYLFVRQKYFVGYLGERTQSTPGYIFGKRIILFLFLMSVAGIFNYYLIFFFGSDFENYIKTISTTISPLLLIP

[3] = Clearance in Beagle dog at 2 mg/kg, iv; type: ADME, organism-based, Canis lupus familiaris; design: dose 2 mg/kg, route intravenous; conditions: in vivo
[4] = Volume of distribution in Beagle dog at 2 mg/kg, iv; type: ADME, organism-based, Canis lupus familiaris; design: dose 2 mg/kg, route intravenous; conditions: in vivo
[5] = target: Cytochrome P450 3A4 (Homo sapiens, UniProt P08684); experiment: Inhibition of human CYP3A4; type: ADME
[6] = tested on: Rattus norvegicus; experiment: Antiinflammatory activity in rat assessed as inhibition of calcium ionophore A23187-induced CysLT production in bronchoalveolar lavage fluid at 3 mg/kg, po administered 16 hrs prior to A23187 challenge; type: functional, Lung; design: scale not given: the % may be the effect or the level left
[7] = target: T1, Arachidonate 5-lipoxygenase-activating protein; experiment: Inhibition of FLAP in human peripheral leukocytes assessed as inhibition of calcium ionophore A23187-induced LTB4 production after 10 mins by ELISA; type: cell-based
[8] = Half life in Beagle dog at 2 mg/kg, iv; type: ADME, organism-based, Canis lupus familiaris; design: dose 2 mg/kg, route intravenous; conditions: in vivo
[9] = target: Cytochrome P450 2C19 (Homo sapiens, UniProt P33261); experiment: Inhibition of human CYP2C19; type: ADME
[10] = target: T2, Prostaglandin G/H synthase 2 (Homo sapiens, UniProt P35354); experiment: Inhibition of COX2-mediated PGE2 production in human whole blood assay
T2 sequence (P35354 whole entry): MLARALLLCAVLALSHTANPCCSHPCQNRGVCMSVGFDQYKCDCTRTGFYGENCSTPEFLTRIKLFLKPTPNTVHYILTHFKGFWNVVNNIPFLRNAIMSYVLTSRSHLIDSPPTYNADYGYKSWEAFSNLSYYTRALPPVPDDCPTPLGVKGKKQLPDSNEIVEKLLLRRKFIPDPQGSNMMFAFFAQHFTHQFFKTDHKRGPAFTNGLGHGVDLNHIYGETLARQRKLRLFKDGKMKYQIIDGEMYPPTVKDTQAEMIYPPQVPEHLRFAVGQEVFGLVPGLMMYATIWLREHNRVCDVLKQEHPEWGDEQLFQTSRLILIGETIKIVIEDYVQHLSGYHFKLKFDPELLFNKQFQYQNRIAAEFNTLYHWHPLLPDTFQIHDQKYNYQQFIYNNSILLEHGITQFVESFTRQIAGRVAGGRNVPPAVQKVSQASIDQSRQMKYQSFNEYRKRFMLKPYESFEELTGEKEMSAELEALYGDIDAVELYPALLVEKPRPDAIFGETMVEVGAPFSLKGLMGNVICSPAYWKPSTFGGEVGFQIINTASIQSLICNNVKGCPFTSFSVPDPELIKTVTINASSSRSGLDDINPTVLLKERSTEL

[11] = Oral bioavailability in Beagle dog at 5 mg/kg; type: ADME, organism-based, Canis lupus familiaris; conditions: in vivo
[12] = target: T3, Leukotriene A-4 hydrolase (Homo sapiens, UniProt P09960); experiment: Inhibition of LTA4 […]
T3 sequence (P09960 whole entry): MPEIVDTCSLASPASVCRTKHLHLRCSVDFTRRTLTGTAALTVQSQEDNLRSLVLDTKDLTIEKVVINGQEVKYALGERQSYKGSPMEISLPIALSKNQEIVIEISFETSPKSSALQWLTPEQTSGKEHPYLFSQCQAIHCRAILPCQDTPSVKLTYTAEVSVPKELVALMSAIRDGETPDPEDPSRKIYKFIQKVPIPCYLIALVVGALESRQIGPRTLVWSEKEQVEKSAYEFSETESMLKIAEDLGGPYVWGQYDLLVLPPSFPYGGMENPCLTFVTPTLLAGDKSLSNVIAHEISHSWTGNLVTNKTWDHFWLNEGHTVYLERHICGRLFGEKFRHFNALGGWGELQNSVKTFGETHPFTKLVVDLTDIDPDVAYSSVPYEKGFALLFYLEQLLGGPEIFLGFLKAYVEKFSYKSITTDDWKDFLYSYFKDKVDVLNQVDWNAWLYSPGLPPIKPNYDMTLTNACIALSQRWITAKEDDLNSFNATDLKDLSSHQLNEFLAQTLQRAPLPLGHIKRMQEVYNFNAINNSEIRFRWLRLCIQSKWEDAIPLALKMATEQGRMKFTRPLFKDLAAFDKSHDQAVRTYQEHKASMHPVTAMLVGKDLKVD

[13] = target: T4, Arachidonate 5-lipoxygenase-activating protein (Rattus norvegicus, UniProt P20291); experiment: Inhibition of FLAP in rat whole blood assessed as inhibition of calcium ionophore A23187-induced LTB4 production preincubated for 15 mins by ELISA; type: tissue-based
T4 sequence (P20291 whole entry): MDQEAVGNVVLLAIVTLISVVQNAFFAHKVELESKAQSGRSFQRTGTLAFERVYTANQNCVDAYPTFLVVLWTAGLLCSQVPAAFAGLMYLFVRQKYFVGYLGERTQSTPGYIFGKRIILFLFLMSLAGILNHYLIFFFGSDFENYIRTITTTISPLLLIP

[14] = tested on: Rattus norvegicus; experiment: Antiinflammatory activity in rat assessed as inhibition of calcium ionophore A23187-induced CysLT production in bronchoalveolar lavage fluid at 3 mg/kg, po administered 4 hrs prior to A23187 challenge; type: functional, Lung; design: scale not given: the % may be the effect or the level left
[15] = target: T5, Cytochrome P450 1A2 (Homo sapiens, UniProt P05177); experiment: Inhibition of human CYP1A2; type: ADME
T5 sequence (P05177 whole entry): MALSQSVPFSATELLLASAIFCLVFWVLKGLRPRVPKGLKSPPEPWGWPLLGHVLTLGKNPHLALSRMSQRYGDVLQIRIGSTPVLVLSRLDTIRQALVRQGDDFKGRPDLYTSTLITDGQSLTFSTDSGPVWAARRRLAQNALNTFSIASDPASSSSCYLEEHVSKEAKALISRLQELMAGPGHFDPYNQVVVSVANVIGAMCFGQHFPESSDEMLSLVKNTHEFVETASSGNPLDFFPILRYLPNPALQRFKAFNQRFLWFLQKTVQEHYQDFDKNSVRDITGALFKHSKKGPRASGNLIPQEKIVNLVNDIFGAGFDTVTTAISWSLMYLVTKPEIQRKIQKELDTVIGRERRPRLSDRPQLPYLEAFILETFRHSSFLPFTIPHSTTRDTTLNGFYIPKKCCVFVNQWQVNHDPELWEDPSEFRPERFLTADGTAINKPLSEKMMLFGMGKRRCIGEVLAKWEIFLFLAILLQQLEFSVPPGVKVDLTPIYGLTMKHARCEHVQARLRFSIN

[16] = Plasma concentration in rat at 3 mg/kg, po after 4 hrs; type: ADME, organism-based; design: dose 3 mg/kg, route oral
[17] = target: T1, Arachidonate 5-lipoxygenase-activating protein; experiment: Inhibition of FLAP in human peripheral leukocytes assessed as inhibition of calcium ionophore A23187-induced LTB4 production after 3 hr by ELISA in presence of 0.5% human serum albumin; type: cell-based

Sequence of Cytochrome P450 3A4 (P08684 whole entry): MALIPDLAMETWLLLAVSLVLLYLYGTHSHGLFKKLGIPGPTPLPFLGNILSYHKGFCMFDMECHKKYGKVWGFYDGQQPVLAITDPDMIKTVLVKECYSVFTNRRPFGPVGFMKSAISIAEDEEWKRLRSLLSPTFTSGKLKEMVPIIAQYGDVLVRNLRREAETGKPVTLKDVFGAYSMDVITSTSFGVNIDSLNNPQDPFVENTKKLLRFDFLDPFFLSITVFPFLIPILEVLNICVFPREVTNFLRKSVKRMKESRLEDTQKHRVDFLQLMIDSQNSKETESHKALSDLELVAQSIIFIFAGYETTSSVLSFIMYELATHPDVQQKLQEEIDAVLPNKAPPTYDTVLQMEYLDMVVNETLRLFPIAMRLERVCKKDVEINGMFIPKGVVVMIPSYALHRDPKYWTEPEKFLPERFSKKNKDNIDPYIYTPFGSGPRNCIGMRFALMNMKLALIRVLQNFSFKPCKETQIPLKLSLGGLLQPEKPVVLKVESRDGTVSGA
Sequence of Cytochrome P450 2C19 (P33261 whole entry): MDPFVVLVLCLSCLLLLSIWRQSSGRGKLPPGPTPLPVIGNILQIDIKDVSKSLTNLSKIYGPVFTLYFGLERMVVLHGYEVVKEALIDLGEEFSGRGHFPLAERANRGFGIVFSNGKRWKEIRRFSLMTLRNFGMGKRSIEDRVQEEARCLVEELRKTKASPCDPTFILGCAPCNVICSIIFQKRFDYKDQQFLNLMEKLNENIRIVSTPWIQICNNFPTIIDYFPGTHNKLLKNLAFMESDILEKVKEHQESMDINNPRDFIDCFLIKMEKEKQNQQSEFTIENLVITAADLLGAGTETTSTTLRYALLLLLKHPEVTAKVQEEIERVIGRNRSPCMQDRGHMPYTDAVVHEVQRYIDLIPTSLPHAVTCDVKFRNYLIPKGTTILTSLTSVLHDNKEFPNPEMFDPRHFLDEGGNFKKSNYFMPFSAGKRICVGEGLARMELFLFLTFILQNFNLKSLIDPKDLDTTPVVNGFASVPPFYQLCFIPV

IC50 [2]: 0.001 µM
clearance [3]: 0.036 L/h/kg
Vd [4]: 0.2 L/kg
IC50 [5]: > 50 µM
IC50 [7]: 0.0007 µM
half-life [8]: 13 h
IC50 [9]: > 40 µM
IC50 [10]: > 100 µM
bioavailability [11]: 51%
IC50 [12]: > 100 µM
IC50 [13]: 0.239 µM
IC50 [15]: > 40 µM
concentration at 4 h [16]: 1 µM
IC50 [17]: 0.004 µM
Compound: CCOc1ccc(-c2ccc(Cn3c(CC(C)(C)C(=O)O)c(SC(C)(C)C)c4cc(OCc5ccc(C)cn5)ccc43)cc2)cn1 [FIBOFLAPON]
Activity [1]: 100%
Activity [6]: 41%
Activity [14]: 80%
